Data on one compound can be found in US20240254156A1, “NOVEL ISOFLAVONE COMPOUND” (NABOCUL COSMETICS CO., LTD., priority 2021, published 2024).

Experiment [1] concerns IL-6 production in RAW264.7 cells. Description: LPS-induced IL-6 production in RAW264.7 cells (ELISA). The conditions noted are these: 1, 5, 10, 50 and 100 μM, added 3 h before LPS 1 μg/mL, supernatant after 24 h, FIG. 11. In kind it is cell-based, mouse. The procedure:
The Ceratonia siliqua C obtained in Example 2 was used to examine the effect of the Ceratonia siliqua C on the production of IL-6 that is an inflammatory cytokine.
In this test, an RAW264.7 cell, a mouse macrophage-derived cell line was used. RAW264.7 cells were cultured in a DMEM medium (containing 10% FBS, 100 U/mL penicillin and […] streptomycin) in the presence of 5% CO2 at 37° C. and saturated humidity.
Each well of a 96-well plate was seeded with 8×10^3 RAW264.7 cells, and the cells were cultured in a CO2 incubator for 24 hours. This was divided into a blank control group, a positive control group and a test group. A 100 μL portion of a DMEM medium was added to each well of the blank control group; a 100 μL portion of a solution of dexamethasone (DXM) dissolved in the DMEM medium was added to each well of the positive control group (a final concentration of dexamethasone: 20 μM); and a 100 μL portion of each of solutions obtained by appropriately diluting the Ceratonia siliqua C with the DMEM medium was added to each well of the test group to provide a different concentration from each other (final concentration: 1 μM, 5 μM, 10 μM, 50 μM and 100 μM). 3 hours later, LPS (1 μg/mL) was added to each well to induce inflammation. 24 hours later, the supernatant was collected and the IL-6 content in the supernatant was measured with an IL-6 quantitative ELISA kit. […]

Experiment [2] deals with aquaporin 3 (AQP3) gene. Description: aquaporin 3 gene mRNA expression in HaCaT cells (QPCR). Format: cell-based, human. The protocol: (§1) The Ceratonia siliqua C obtained in Example 2 was used to examine the effect of the Ceratonia siliqua C on the expression of aquaporin 3 (AQP3) gene and filaggrin 2 (FLG2) gene in a HaCaT cell, a human epidermis-derived keratinocyte cell line.
(§2) First, the HaCaT cells were cultured in a DMEM medium (containing 10% FBS, 100 U/mL penicillin and […] streptomycin) in the presence of 5% CO2 at 37° C. and saturated humidity. Next, the HaCaT cells adjusted to a cell concentration of 5×10^5 cells/mL were seeded in each well of a 6-well cell culture plate and cultured in a CO2 incubator (5% CO2, 37° C.) for 24 hours. Thereafter, the Ceratonia siliqua C isolated in Example 2 was added to each well to provide a final concentration different from each other. Specifically, the final concentrations of Ceratonia siliqua C in the HaCaT cell culture medium were 1 μM, 5 μM, 10 μM, 50 μM and 100 μM, respectively. A well without the Ceratonia siliqua C added was used as a control (0 μM). After addition, they were subjected to culture for 24 hours.
(§3) After completion of the culture, the HaCaT cells were collected from each well, and total RNA was extracted with an RNA extraction reagent (RNAzol®, a product available from Molecular Research Center, Inc.). […]

For experiment [3], the system named is filaggrin 2 (FLG2) gene. Description: filaggrin 2 gene mRNA expression in HaCaT cells (QPCR). In kind it is cell-based, human. The protocol:
as §1, §2, §3

The mark [4] stands for this setting: 10 μM (highest expression promoting effect), 24 h, relative to control.

Turning to `COc1ccc(-c2coc3c(OC)c(O)c(O[C@@H]4O[C@H](CO)[C@@H](O)[C@H](O)[C@H]4O)cc3c2=O)cc1` [Ceratonia siliqua C], the “production of IL-6 by LPS induction” value in experiment [1] is “inhibit the production of IL-6 in a concentration-dependent manner”. Moreover, in experiment [2] (setting [4]), the “increase of mRNA expression level of aquaporin 3” value worked out at 2.5 times. Moreover, in experiment [2] (1-100 μM, 24 h culture, FIG. 12), the “mRNA expression level of aquaporin 3 compared to the control” value is recorded as “greatly increased the mRNA expression level”. The “increase of mRNA expression level of filaggrin 2” value in experiment [3] (setting [4]) worked out at 1.35 times. Further, the “mRNA expression level of filaggrin 2 compared to the control” value in experiment [3] (1-100 μM, 24 h culture, FIG. 13) was “greatly increased the mRNA expression level”.
